Test systems include RXF 393; A549; HCT-116; U-251; OVCAR-3; SK-OV-3; NCI-H522; M14; UACC-62; SF-539; Hs-578T; HOP-92; UO-31; CAKI-1; SF-268; SNB-75; HL-60; HT-29; PC-3; IGROV-1.
Holding throughout (assay): NCI tumour cell line growth inhibition, 48 h

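Growth conditions: 96-well plates. Treatment: test compound, 48 hours, 5 concentrations. Analysis: linear interpolation between bracketing concentrations; unreached endpoints set to highest concentration. The concentration for 50% growth inhibition is given as GI50.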 Calls of active or inactive are those of the source. No stated cut-off is given here; in the data, active = GI50 up to about 1.1 µM and inactive = higher.

On to `COc1ccc(-c2cs/c(=N\c3ccccc3)n2CC(O)c2ccc([N+](=O)[O-])cc2)cc1` (centres undefined), for which the GI50 is > 100 µM (inactive) in the experiment with RXF 393; > 100 µM (inactive) in the experiment on A549; > 29.9 µM (inactive) with HCT-116; > 100 µM (inactive) in the experiment on U-251; > 100 µM (inactive) with OVCAR-3; > 100 µM (inactive) in the experiment on SK-OV-3. Moreover, the GI50 was > 100 µM (inactive) with NCI-H522; > 100 µM (inactive) with M14; > 73.5 µM (inactive) with UACC-62; > 100 µM (inactive) in the experiment on SF-539; > 100 µM (inactive) with Hs-578T; > 100 µM (inactive) with HOP-92. Moreover, the GI50 in the experiment on UO-31, in the experiment with CAKI-1, in the experiment with SF-268, with SNB-75, in the experiment on HL-60 and with HT-29 was > 100 µM (inactive) each time. For the same compound, the GI50 in the experiment on PC-3 and in the experiment with IGROV-1 was > 100 µM (inactive) each time.

As for `O=C1c2cccnc2C(=O)C2C3C=CC(C3)C12` (centres undefined), the GI50 is 2.69 µM (inactive) in the experiment on RXF 393; 12.4 µM (inactive) with A549; 3.85 µM (inactive) in the experiment with HCT-116; 4.23 µM (inactive) in the experiment on U-251; 13.5 µM (inactive) with OVCAR-3; 18.3 µM (inactive) in the experiment on SK-OV-3. Further, the GI50 was 3.27 µM (inactive) in the experiment on NCI-H522; 13.3 µM (inactive) in the experiment on M14; 3.37 µM (inactive) with UACC-62; 2.4 µM (inactive) in the experiment on SF-539; 9.66 µM (inactive) with Hs-578T; 12.9 µM (inactive) with HOP-92. Also, the GI50 is 11.8 µM (inactive) in the experiment with UO-31; 14.4 µM (inactive) in the experiment on CAKI-1; 10.2 µM (inactive) in the experiment with SF-268; 12.6 µM (inactive) in the experiment with SNB-75; 1.74 µM (inactive) in the experiment with HL-60; 27.2 µM (inactive) in the experiment with HT-29. Also, the GI50 in the experiment with PC-3 is 10.2 µM (inactive); in the experiment with IGROV-1, 10.6 µM (inactive).

With `O=C(O)c1ccc(OCc2ccccc2)c(Cl)c1`, the GI50 with RXF 393, in the experiment with A549, in the experiment on HCT-116, in the experiment on U-251, in the experiment on OVCAR-3 and in the experiment on SK-OV-3 was > 100 µM (inactive) in each case. For the same compound, the GI50 in the experiment with NCI-H522, in the experiment on M14, in the experiment with UACC-62, with SF-539, in the experiment on Hs-578T and with HOP-92 was > 100 µM (inactive) in each case. Also, the GI50 is > 100 µM (inactive) with UO-31; 20.2 µM (inactive) with CAKI-1; > 100 µM (inactive) with SF-268; > 100 µM (inactive) with SNB-75; > 100 µM (inactive) in the experiment on HL-60; > 100 µM (inactive) with HT-29. Besides, the GI50 in the experiment on PC-3 and in the experiment on IGROV-1 was > 100 µM (inactive) each time.

As for `COC(=O)c1ccccc1/C=C1\Cc2ccc3c(c2C1=O)CCC3`, the GI50 with RXF 393, in the experiment on A549, with HCT-116, in the experiment with U-251, with OVCAR-3 and in the experiment on SK-OV-3 was > 100 µM (inactive) each time. Moreover, the GI50 with NCI-H522, in the experiment on UACC-62, in the experiment on SF-539, in the experiment on Hs-578T, with HOP-92 and with UO-31 was > 100 µM (inactive) each time. Also, the GI50 in the experiment with CAKI-1, in the experiment with SF-268, in the experiment on SNB-75, in the experiment on HL-60, in the experiment with HT-29 and in the experiment with PC-3 was > 100 µM (inactive) in each case. The GI50 with IGROV-1 was > 100 µM (inactive).

Consider `CC1(C)CC2(C)CC1CC2(O)c1ccccc1` (centres undefined), for which the GI50 in the experiment with RXF 393, in the experiment with A549, in the experiment on HCT-116, in the experiment with U-251, in the experiment with OVCAR-3 and with SK-OV-3 was > 100 µM (inactive) throughout. The GI50 with NCI-H522 is > 100 µM (inactive); in the experiment on M14, > 100 µM (inactive); in the experiment with UACC-62 it was > 100 µM (inactive); in the experiment with SF-539 it was > 100 µM (inactive); with Hs-578T it was > 100 µM (inactive); in the experiment on HOP-92, 42.7 µM (inactive). Besides, the GI50 with UO-31, in the experiment with CAKI-1, in the experiment with SF-268, in the experiment with SNB-75, with HL-60 and in the experiment on HT-29 was > 100 µM (inactive) each time. In addition, the GI50 in the experiment on PC-3 and in the experiment with IGROV-1 was > 100 µM (inactive) throughout.

Take `Cc1ccc(-c2cc(-c3ccc(Cl)cc3)nc(/N=C3\C(=O)N(CN4CCCCC4)c4ccc(Cl)cc43)n2)cc1`: the GI50 in the experiment on RXF 393 was 18.3 µM (inactive); in the experiment with A549, 16.4 µM (inactive); in the experiment with HCT-116 it was 23.1 µM (inactive); in the experiment with U-251 it was 24 µM (inactive); in the experiment with OVCAR-3 it was 35.5 µM (inactive); in the experiment on SK-OV-3, 31.8 µM (inactive). Besides, the GI50 in the experiment with NCI-H522 was 12.5 µM (inactive); in the experiment with M14 it was 15.6 µM (inactive); with UACC-62, 23 µM (inactive); in the experiment with SF-539, 24.5 µM (inactive); in the experiment with Hs-578T, 18.9 µM (inactive); in the experiment with HOP-92, 15.6 µM (inactive). Besides, the GI50 in the experiment on CAKI-1 was 18.1 µM (inactive); in the experiment on SF-268 it was 17.9 µM (inactive); in the experiment on SNB-75, 42.9 µM (inactive); in the experiment on HL-60 it was 16 µM (inactive); in the experiment on HT-29 it was 32.3 µM (inactive); with PC-3, 34 µM (inactive). Also, the GI50 in the experiment with IGROV-1 is 10.5 µM (inactive).

In the case of `CSCSSC`, the GI50 was > 100 µM (inactive) in the experiment with RXF 393; > 100 µM (inactive) in the experiment on A549; > 100 µM (inactive) with HCT-116; > 100 µM (inactive) in the experiment on OVCAR-3; 74.6 µM (inactive) with SK-OV-3; > 100 µM (inactive) with NCI-H522. The GI50 in the experiment with M14 is > 100 µM (inactive); in the experiment with UACC-62, 61.7 µM (inactive); in the experiment with SF-539, > 100 µM (inactive); in the experiment on Hs-578T, > 100 µM (inactive); in the experiment on HOP-92 it was > 75.5 µM (inactive); with UO-31, > 100 µM (inactive). In addition, the GI50 with CAKI-1 was > 21.6 µM (inactive); in the experiment on SF-268, > 100 µM (inactive); in the experiment on SNB-75, 52.1 µM (inactive); in the experiment with HL-60, 2.54 µM (inactive); with HT-29, > 100 µM (inactive); in the experiment on PC-3, > 80 µM (inactive). The GI50 in the experiment on IGROV-1 is > 79.6 µM (inactive).

As for `O=C(N/N=C/c1ccc(Cl)cc1)c1c(Cl)c(Cl)c(Cl)c(Cl)c1-c1nc2ccccc2[nH]1`, the GI50 in the experiment with RXF 393 is 33 µM (inactive); in the experiment with A549 it was > 100 µM (inactive); with HCT-116, 40.3 µM (inactive); with OVCAR-3, > 100 µM (inactive); in the experiment with SK-OV-3 it was 0.0454 µM (active); in the experiment on NCI-H522 it was 55.7 µM (inactive). In addition, the GI50 in the experiment with M14 was 86.5 µM (inactive); in the experiment on UACC-62, 80.9 µM (inactive); in the experiment with SF-539, > 100 µM (inactive); in the experiment with Hs-578T, 1.83 µM (inactive); in the experiment with HOP-92, 23.6 µM (inactive); with UO-31, 86.9 µM (inactive). For the same compound, the GI50 was 46.2 µM (inactive) in the experiment with CAKI-1; > 100 µM (inactive) in the experiment on SF-268; > 100 µM (inactive) with SNB-75; > 100 µM (inactive) with HL-60; 47.3 µM (inactive) in the experiment with HT-29; 92.5 µM (inactive) in the experiment on PC-3. Also, the GI50 in the experiment on IGROV-1 is 59.3 µM (inactive).

On to `CCCCCN(CCCCC)CC(C)(C)C(O)c1ccc(OC)c2ccccc12` (centres undefined), for which the GI50 in the experiment on RXF 393 is 7.78 µM (inactive); in the experiment with A549, 9.2 µM (inactive); with HCT-116, 12.9 µM (inactive); in the experiment with U-251 it was 9.46 µM (inactive); in the experiment on OVCAR-3 it was 8.34 µM (inactive); with NCI-H522, 6.79 µM (inactive). For the same compound, the GI50 with M14 is 1.4 µM (inactive); in the experiment on UACC-62 it was 12.5 µM (inactive); with SF-539, 3.89 µM (inactive); in the experiment with Hs-578T it was 16.6 µM (inactive); in the experiment on HOP-92, 2.53 µM (inactive); in the experiment with UO-31, 2.25 µM (inactive). Further, the GI50 in the experiment on CAKI-1 was 11.6 µM (inactive); in the experiment on SF-268, 13.3 µM (inactive); with SNB-75, 20.5 µM (inactive); in the experiment on HL-60 it was 3.77 µM (inactive); with HT-29, 2.01 µM (inactive); in the experiment on PC-3, 10.9 µM (inactive). In addition, the GI50 in the experiment on IGROV-1 is 2.59 µM (inactive).

With `CCN(CC)C1=Nc2ccccc2-n2ccnc2C1`, the GI50 with RXF 393, with A549, with HCT-116, in the experiment on U-251, with OVCAR-3 and with NCI-H522 was > 100 µM (inactive) in each case. The GI50 in the experiment with M14, in the experiment with UACC-62, in the experiment on SF-539, with Hs-578T, with HOP-92 and in the experiment with UO-31 was > 100 µM (inactive) throughout. For the same compound, the GI50 is > 100 µM (inactive) with CAKI-1; > 100 µM (inactive) with SF-268; 70.5 µM (inactive) in the experiment with SNB-75; 78.2 µM (inactive) in the experiment on HL-60; > 100 µM (inactive) with HT-29; > 100 µM (inactive) with PC-3. In the experiment with IGROV-1, the GI50 was > 100 µM (inactive).
